The values that follow come from PubChem BioAssay AID2005 (Sanford-Burnham Center for Chemical Genomics, 2009).

Active and inactive are the calls of the source.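 The calls were made as follows: active = plate Z score at or below -3, or inhibition of at least 30% at 20 µM; inactive = the rest.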

This experiment can be described thus: compounds lowering EGFP fluorescence in F442A cells, dose response, counter-screen for p/CIP destabilizer project (AID 2005).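 Also: cells express EGFP alone from a CMV promoter as a counter screen for p/CIP-EGFP.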 The note with it: F442A EGFP cells, EGFP fluorescence, 16 h, stronger effect = higher value.

`CC(=O)NCCNC(=O)c1ccc(CSc2nc3ccccc3s2)cc1`: the inhibition is 15.9% (EGFP decrease, at 10 µM) and 16.6% (inactive) (at 20 µM).

Regarding `Cc1ccccc1OC(C)C(=O)Nc1ccc(S(=O)(=O)Nc2nccs2)cc1` (configuration not stated), the inhibition is, setting by setting: (EGFP decrease, at 10 µM) -2.8%; (at 20 µM) -1.1% (inactive).

Regarding `COC(=O)c1c(NC(=O)c2ccc(C)cc2)sc(Cc2ccccc2)c1C`, the inhibition reads like this: (EGFP decrease, at 10 µM) 29.9%; (at 20 µM) -2.4% (inactive).

As for `CC(C)CCN1C(=O)c2ccc(C(=O)NCC3CCCO3)cc2C1=O` (configuration not stated), the inhibition (EGFP decrease, at 10 µM) was found to be 8.4% and the inhibition (at 20 µM) is 3.8% (inactive).

Turning to `O=C(c1cc(-c2ccccc2)on1)N1CCN(C(=O)c2ccco2)CC1`, the inhibition (EGFP decrease, at 10 µM) was determined as 18.5% and the inhibition (at 20 µM) is 4.9% (inactive).

As for `Cc1onc(-c2ccccc2)c1C(=O)OCC(=O)Nc1cc(S(=O)(=O)N2CCOCC2)ccc1Cl`, the inhibition is 13.9% (EGFP decrease, at 10 µM) and 19.6% (inactive) (at 20 µM).

On to `CC(C(=O)N1c2ccccc2CCc2ccccc21)n1nnc(-c2ccc(N(C)C)cc2)n1` (configuration not stated), for which the inhibition by setting is: (EGFP decrease, at 10 µM) 15.2%; (at 20 µM) 6.8% (inactive).

For `COc1cc(Cl)c(C)cc1NC(=O)CSc1ccc(NC(C)=O)cc1`, the inhibition by setting is: (EGFP decrease, at 10 µM) 20.2%; (at 20 µM) 10.2% (inactive).

Turning to `CCc1cc2c(=O)c(-c3cscn3)coc2cc1O`, the inhibition by setting is: (EGFP decrease, at 10 µM) -1.7%; (at 20 µM) -28% (inactive).

On to `O=C(c1ccccc1)N1CCN(C(=O)c2cc3ccccc3o2)CC1`, for which the inhibition reads like this: (EGFP decrease, at 10 µM) 8.7%; (at 20 µM) 17.1% (inactive).

Regarding `CCOC(=O)c1ccc(COC(=O)c2nonc2N)cc1`, the inhibition is, setting by setting: (EGFP decrease, at 10 µM) 4.5%; (at 20 µM) 21.1% (inactive).

Consider `CCCCOc1ccc(/C(O)=C2/C(=O)C(=O)N(CCCOC)C2c2ccncc2)cc1` (configuration not stated), for which the inhibition was 5.3% (EGFP decrease, at 10 µM) and -10.4% (inactive) (at 20 µM).

Regarding `C=CCc1cccc2cc(C(=O)NC)c(=O)oc12`, the inhibition was 12.9% (EGFP decrease, at 10 µM) and 30.8% (at 20 µM).

Take `CCCCn1c(SCC(=O)NCc2ccco2)nc2c(sc3ccccc32)c1=O`: the inhibition (EGFP decrease, at 10 µM) was found to be 20.5% and the inhibition (at 20 µM) is 13.2% (inactive).

For the compound `CCn1c(SCC(=O)Nc2nc3ccc(C)cc3s2)nc2c(c1=O)SC(C)C2` (configuration not stated), the inhibition (EGFP decrease, at 10 µM) is 36.6% and the inhibition (at 20 µM) was 44.7%.

Regarding `CSCCC(NC(=O)C1CCC(C)CC1)C(=O)Nc1ccc(NC(C)=O)cc1` (configuration not stated), the inhibition (EGFP decrease, at 10 µM) was 24.8% and the inhibition (at 20 µM) is 18.5% (inactive).

Take `CC1(C)OC(=O)C(=CNC(CCC(N)=O)C(=O)O)C(=O)O1` (configuration not stated): the inhibition runs as follows: (EGFP decrease, at 10 µM) -1.3%; (at 20 µM) 15.1% (inactive).

With `N/C(=N\OC(=O)c1ccc(Cl)cc1Cl)c1ccccc1`, the inhibition (EGFP decrease, at 10 µM) is 10.4% and the inhibition (at 20 µM) was 1.3% (inactive).

For `CCn1c(COc2ccc(=O)n(-c3ccccc3)n2)nnc1SCc1ccccc1C`, the inhibition by setting is: (EGFP decrease, at 10 µM) 4.8%; (at 20 µM) 20.9% (inactive).

Take `CN(C)N=C1c2cc(S(=O)(=O)N(C)C)ccc2-c2ccc(S(=O)(=O)N(C)C)cc21`: the inhibition reads like this: (EGFP decrease, at 10 µM) 2.3%; (at 20 µM) 6.6% (inactive).

For the compound `O=c1cc(O)c2c(=O)n(C3CCCCC3)c3ccccc3c2o1`, the inhibition was 2.1% (EGFP decrease, at 10 µM) and 4.6% (inactive) (at 20 µM).

In the case of `CCc1c(C)nc(SCC(=O)Nc2cccc(Br)c2)[nH]c1=O`, the inhibition is 35.5% (EGFP decrease, at 10 µM) and 12.1% (inactive) (at 20 µM).

On to `C=CCN1C(=O)/C(=C2/Sc3ccccc3N2C)SC1=Nc1ccccc1C`, for which the inhibition by setting is: (EGFP decrease, at 10 µM) 1.3%; (at 20 µM) 8.6% (inactive).

In the case of `COc1ccccc1NC(=O)CSc1nncn1-c1cccnc1`, the inhibition runs as follows: (EGFP decrease, at 10 µM) 4.7%; (at 20 µM) 8% (inactive).

Consider `O=C1c2ccccc2C(=O)C1c1ccc2ccccc2n1`, for which the inhibition is 1.9% (EGFP decrease, at 10 µM) and -11.6% (inactive) (at 20 µM).

On to `CCN1CCN(c2cc(C)c3cc(NC(=S)N4CC(C)CC(C)C4)ccc3n2)CC1` (configuration not stated), for which the inhibition was 28.8% (EGFP decrease, at 10 µM) and 12.7% (inactive) (at 20 µM).
